Patent publication US20100099692A1, “HARMFUL ORGANISM CONTROL COMPOSITION” (priority 2007, published 2010)

Experiments:
Bemisia tabaci imagoes [1] = assay: Test Example 1: cabbage leaf disc immersion test on Bemisia tabaci imagoes, controlling value after 4 days; type: in vivo; conditions: foliar, 96 h, cabbage leaf disc immersed 30 seconds; for pest or weed control at 400 ppm: compound I alone 400 ppm
Bemisia tabaci imagoes [2] = assay: Test Example 2: cabbage leaf disc immersion test on Bemisia tabaci imagoes, controlling value after 2 days; type: in vivo; conditions: cabbage leaf disc immersed 30 seconds

SMILES	pest or weed control at 400 ppm (Bemisia tabaci imagoes [1]) [%]	other results
COC(=O)NNC(=O)c1cc(Cl)cc(C)c1NC(=O)c1cc(C(F)(F)F)nn1-c1ncccc1Cl [compound I-(5)]	100	
COC(=O)NNC(=O)c1cc(Cl)cc(C)c1NC(=O)c1cc(Br)nn1-c1ncccc1Cl [compound I-(34)]	100	
COC(=O)NNC(=O)c1cc(Br)cc(Br)c1NC(=O)c1cc(Br)nn1-c1ncccc1Cl [compound I-(68)]	95	
COC(=O)NNC(=O)c1cc(Cl)cc(Br)c1NC(=O)c1cc(Br)nn1-c1ncccc1Cl [compound I-(70)]	90	
COC(=O)NNC(=O)c1cc(Br)cc(C)c1NC(=O)c1cc(C(F)(F)F)nn1-c1ncccc1Cl [compound I-(74)]	100	
COC(=O)NN(C)C(=O)c1cc(Cl)cc(C)c1NC(=O)c1cc(Br)nn1-c1ncccc1Cl [compound I-(115)]	51	
COC(=O)NNC(=O)c1cc(C#N)cc(C)c1NC(=O)c1cc(Br)nn1-c1ncccc1Cl [compound I-(117)]	86	
COC(=O)N(C)N(C)C(=O)c1cc(Cl)cc(C)c1NC(=O)c1cc(Br)nn1-c1ncccc1Cl [compound I-(119)]	100	
COC(=O)NN(C)C(=O)c1cc(C#N)cc(C)c1NC(=O)c1cc(Br)nn1-c1ncccc1Cl [compound I-(138)]		Pest controlling value (%) (Bemisia tabaci imagoes [2]; compound I-(138) alone 800 ppm): 33%
COC(=O)N(C)N(C)C(=O)c1cc(Br)cc(Br)c1NC(=O)c1cc(Br)nn1-c1ncccc1Cl [compound I-(204)]	100	
COC(=O)N(C)NC(=O)c1cc(Br)cc(Br)c1NC(=O)c1cc(Br)nn1-c1ncccc1Cl [compound I-(213)]	100	
CC#CCOc1ncnc(N2CC(C)CC(C)C2)c1F (stereo not shown) [compound X, 4-(2-butynyloxy)-5-fluoro-6-(3,5-dimethylpiperidino)pyrimidine]		pest or weed control at 1000 ppm (Bemisia tabaci imagoes [1]; compound X alone 1000 ppm): 23%; Pest controlling value (%) (Bemisia tabaci imagoes [2]; compound X alone 2000 ppm): 75%
